In one data set the target is T1, histamine H1 receptor (Cavia porcellus, UniProt P31389).
T1 construct: Guinea pig cerebellum was homogenized in 20 volumes of ice-cold 50 mM phosphate buffer; from tissue; host or cells: guinea pig cerebellum
Briefly: Histamine H1 binding assay ([3H]pyrilamine, guinea pig cerebellum). The settings on record: read-out: Ki±SEM, H1. Here is the method: (§1) All the new compounds were dissolved in 5% DMSO. The following specific radioligands and tissue sources were used: (a) serotonin 5-HT1A receptor, [^3H]8-OH-DPAT, rat brain cortex; (b) serotonin 5-HT2A receptor, [^3H]ketanserin, rat brain cortex; (c) serotonin 5-HT2C receptor, [^3H]mesulergine, rat brain cortex; (d) dopamine D2 receptor, [^3H]spiperone, rat striatum; (e) dopamine D3 receptor, [^3H]spiperone, rat olfactory tubercle (f) histamine H1 receptor, [^3H] pyrilamine, guinea pig cerebellum.
(§2) Total binding was determined in the absence of no-specific binding and compounds. Specific binding was determined in the presence of compounds. Non-specific binding was determined as the difference between total and specific binding.
(§3) Percentage of inhibition (%) = (total binding − specific binding)×100%/(total binding − nonspecific binding).
(§4) Ki values were calculated based on the Cheng and Prussoff equation: Ki = IC50/(1+C/Kd) where C represents the concentration of the hot ligand used and Kd its receptor dissociation constant were calculated for each labeled ligand. Mean Ki values and SEM were reported for at least three independent experiments.
(§5) The incubation was followed by a rapid vacuum filtration through Whatman GF/B glass filters, and the filtrates were washed twice with 5 mL cold buffer and transferred to scintillation vials. Scintillation fluid (3.0 mL) was added and the radioactivity bound was measured using a Beckman LS 6500 liquid scintillation counter.

Data set [1] deals with T2, serotonin 5-HT1A receptor (Rattus norvegicus, UniProt P19327).
T2 construct: Rat cerebral cortex was homogenized in 20 volumes of ice-cold Tris-HCl buffer; from tissue; host or cells: rat brain (cerebral) cortex
T2 sequence (P19327 1-422): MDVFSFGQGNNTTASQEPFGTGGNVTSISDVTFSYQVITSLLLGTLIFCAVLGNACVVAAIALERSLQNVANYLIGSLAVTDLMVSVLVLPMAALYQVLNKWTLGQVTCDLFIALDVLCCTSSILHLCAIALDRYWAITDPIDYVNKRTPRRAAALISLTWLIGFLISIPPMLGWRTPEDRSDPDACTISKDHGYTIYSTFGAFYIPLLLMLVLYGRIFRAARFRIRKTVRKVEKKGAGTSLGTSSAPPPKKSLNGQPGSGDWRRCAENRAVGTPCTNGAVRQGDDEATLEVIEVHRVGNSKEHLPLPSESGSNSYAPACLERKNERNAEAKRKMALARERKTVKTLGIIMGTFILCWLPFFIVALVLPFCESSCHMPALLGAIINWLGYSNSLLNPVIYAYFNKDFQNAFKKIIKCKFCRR
Briefly: 5-HT1A binding assay ([3H]8-OH-DPAT, rat brain cortex). The note with it: read-out: Ki±SEM, 5HT1A. The method, then: as §1, §2, §3, §4
Rat cerebral cortex was homogenized in 20 volumes of ice-cold Tris-HCl buffer (50 mM, pH 7.7) using an ULTRA TURAX homogeniser, and was then centrifuged at 32000 g for 10 min. […] The final pellet was resuspended in Tris-HCl buffer containing 10 µM Pargyline, 4 mM CaCl2 and 0.1% ascorbic acid.
Total binding each assay tube was added 900 µL of the tissue suspension, 50 µL of 0.5 nM [^3H]8-OH-DPAT (187.4 Ci/mmol, Perkin Elmer Life Sciences, Boston, MA, USA), 50 µL Tris-HCl buffer containing 10 µM Pargyline, 4 mM CaCl2 and 0.1% ascorbic acid.
Non-specific binding each assay tube was added 900 µL of the tissue suspension, 50 µL of 0.5 nM [^3H]8-OH-DPAT, 50 µL of 10 µM serotonin.
Specific binding each assay tube was added 900 µL of the tissue suspension, 50 µL of 0.5 nM [^3H]8-OH-DPAT, 50 µL of new compounds or reference drug.
The incubation was followed by a rapid vacuum filtration through Whatman GF/B glass filters, and the filtrates were washed twice with 5mL cold buffer and transferred to scintillation vials. Scintillation fluid (3.0 mL) was added and the radioactivity bound was measured using a Beckman LS 6500 liquid scintillation counter.

Another data set addresses T3, dopamine D3 receptor (Rattus norvegicus, UniProt P19020).
T3 construct: Rat olfactory tubercle was homogenized in 20 volumes of ice-cold 50 mM Hepes Na; from tissue; host or cells: rat olfactory tubercle
In words: D3 dopaminergic binding assay ([3H]spiperone, rat olfactory tubercle). The note with it: mean of three experiments, read-out: Ki±SEM, D3. The method, then: as §1, §2, §3, §4, §5

For data set [2], the target named is T4, serotonin 5-HT2A receptor (Rattus norvegicus, UniProt P14842).
T4 construct: Rat cerebral cortex was homogenized in 20 volumes of ice-cold Tris-HCl buffer; from tissue; host or cells: rat brain (cerebral) cortex
In words: 5-HT2A binding assay ([3H]ketanserin, rat brain cortex). The note with it: read-out: Ki±SEM, 5HT2A. Here is the method: as §1, §2, §3, §4
Rat cerebral cortex was homogenized in 20 volumes of ice-cold Tris-HCl buffer (50 mM, pH 7.7) using an ULTRA TURAX homogeniser, and centrifuged at 32000 g for 20 min. The resulting pellet was resuspended in the same quantity of the buffer centrifuged for 20 min. The final pellet was resuspended in 50 volumes of the Tris-HCl buffer.
Total binding each assay tube was added 900 µL of the tissue suspension, 50 µL of 0.6 nM [^3H]ketanserin (60.0 Ci/mmol, Perkin Elmer Life Sciences, Boston, MA, USA), 50 µL Tris-HCl buffer.
Non-specific binding each assay tube was added 900 µL of the tissue suspension, 50 µL of 0.6 nM [^3H]ketanserin, 50 µL of 10 µM methisergide.
Specific binding each assay tube was added 900 µL of the tissue suspension, 50 µL of 0.6 nM [^3H]ketanserin, […] of new compounds or reference drug.
as §5

The target of the next data set is T5, dopamine D2 receptor (Rattus norvegicus, UniProt P61169).
T5 construct: Rat striatum was homogenized in 20 volumes of ice-cold 50 mM Tris-HCl buffer; from tissue; host or cells: rat striatum
Briefly: D2 dopaminergic binding assay ([3H]spiperone, rat striatum). The note with it: read-out: Ki±SEM, D2. The method, then: as §1, §2, §3, §4
Rat striatum was homogenized in 20 volumes of ice-cold 50 mM Tris-HCl buffer (pH 7.7) using an ULTRA TURAX homogeniser, and centrifuged twice for 10 min at 48,000 g with resuspension of the pellet in fresh buffer. The final pellet was resuspended in 50 mM ice-cold Tris-HCl containing 120 mM NaCl, 5 mM KCl, 2 mM CaCl2, 1 mM MgCl2, 0.1% ascorbic acid and 5 µM pargyline.
Total binding each assay tube was added 900 µL of the tissue suspension, 50 µL of 0.5 nM [^3H]spiperone (16.2 Ci/mmol; Perkin Elmer Life Sciences, Boston, MA, USA), 50 µL Tris-HCl buffer containing 120 mM NaCl, 5 mM KCl, 2 mM CaCl2, 1 mM MgCl2, 0.1% ascorbic acid and 5 µM pargyline.
Non-specific binding each assay tube was added 900 µL of the tissue suspension, 50 µL of 0.5 nM [^3H]spiperone, 50 µL of 10 µM (+)-butaclamol.
Specific binding each assay tube was added 900 µL of the tissue suspension, 50 µL of 0.5 nM [^3H]spiperone, 50 µL of new compounds or reference drug.
as §5

The target of data set [3] is T6, serotonin 5-HT2C receptor (Rattus norvegicus, UniProt P08909).
T6 construct: Rat cerebral cortex was homogenized in 20 volumes of ice-cold Tris-HCl buffer; from tissue; host or cells: rat brain (cerebral) cortex
T6 sequence (P08909 33-460): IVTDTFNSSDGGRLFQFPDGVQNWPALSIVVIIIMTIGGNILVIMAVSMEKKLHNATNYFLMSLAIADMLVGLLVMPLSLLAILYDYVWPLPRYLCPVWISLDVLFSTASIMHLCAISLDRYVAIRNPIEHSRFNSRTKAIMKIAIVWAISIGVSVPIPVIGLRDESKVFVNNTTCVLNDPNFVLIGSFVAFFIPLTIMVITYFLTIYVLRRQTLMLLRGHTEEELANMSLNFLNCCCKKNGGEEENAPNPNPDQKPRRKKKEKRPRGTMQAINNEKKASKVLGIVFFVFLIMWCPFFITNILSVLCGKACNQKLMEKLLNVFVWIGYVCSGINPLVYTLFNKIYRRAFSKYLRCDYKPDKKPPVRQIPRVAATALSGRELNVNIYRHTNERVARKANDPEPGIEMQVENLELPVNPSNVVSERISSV
In words: 5-HT2C binding assay ([3H]mesulergine, rat brain cortex). The settings on record: mean of three experiments, read-out: Ki±SEM, 5HT2C. The method, then:
as §1
Total binding was determined in the absence of no-specific binding and compounds. Specific binding was determined in the presence of compounds. Non-specific binding was determined as the difference between total and specific binding. […]
Ki values were calculated based on the Cheng and Prussoff equation: Ki = IC50/(1+C/Kd) where C represents the concentration of the hot ligand used and Kd its receptor dissociation constant were calculated for each labeled ligand. […]
The resulting pellet was resuspended in the same quantity of the buffer centrifuged for 20 min. […]
as §5

In data set [4] the test system is MK-801-induced hyperactivity in mice. In words: MK-801-induced hyperactivity. The note with it: Mus musculus, po, read-out: MK-801-induced hyperactivity ED50 (B).
A short description of another data set: in vivo. The settings on record: Kun Ming (KM), mouse, po.
Data set [5] concerns apomorphine-induced climbing behavior in mice. Briefly: Apomorphine-induced climbing. The note with it: Mus musculus, po, read-out: Apomorphine-induced climbing ED50 (A). The class given is in vivo. The method, then: . […] . Animals were then challenged at 30 minutes post-injection with 1.0 mg/kg of the apomorphine in 0.9% NaCl+0.1% ascorbic acid, placed in cylindrical wire cages (12 cm in diameter, 14 cm in height), and observed for climbing behavior at 10, 20 and 30 min post dose. The climbing behaviour was scored as follows: 3–4 paws on the cage floor = 0 score; 2 and 3 paws on the cage = 1 score; 4 paws on the cage = 2 score.

Where [6] appears, read: mice, 95% confidence limits in parentheses.

The structures appear in SMILES notation. Read-outs that look alike come from different tables or passages of the source.

T4 sequence (P14842 whole entry): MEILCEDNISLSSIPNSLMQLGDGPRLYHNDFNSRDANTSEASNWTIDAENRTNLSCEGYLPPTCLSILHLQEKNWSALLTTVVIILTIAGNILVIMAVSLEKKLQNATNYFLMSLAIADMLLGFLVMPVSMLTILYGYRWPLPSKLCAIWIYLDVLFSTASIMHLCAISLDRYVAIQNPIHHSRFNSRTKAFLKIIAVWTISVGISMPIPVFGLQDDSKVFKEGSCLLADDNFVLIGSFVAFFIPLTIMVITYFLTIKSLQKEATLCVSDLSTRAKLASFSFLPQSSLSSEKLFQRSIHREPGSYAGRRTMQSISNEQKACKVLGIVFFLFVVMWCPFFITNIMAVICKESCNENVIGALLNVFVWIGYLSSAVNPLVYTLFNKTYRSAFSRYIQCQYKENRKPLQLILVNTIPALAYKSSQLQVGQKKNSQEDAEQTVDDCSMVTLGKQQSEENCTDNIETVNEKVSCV
T5 sequence (P61169 whole entry): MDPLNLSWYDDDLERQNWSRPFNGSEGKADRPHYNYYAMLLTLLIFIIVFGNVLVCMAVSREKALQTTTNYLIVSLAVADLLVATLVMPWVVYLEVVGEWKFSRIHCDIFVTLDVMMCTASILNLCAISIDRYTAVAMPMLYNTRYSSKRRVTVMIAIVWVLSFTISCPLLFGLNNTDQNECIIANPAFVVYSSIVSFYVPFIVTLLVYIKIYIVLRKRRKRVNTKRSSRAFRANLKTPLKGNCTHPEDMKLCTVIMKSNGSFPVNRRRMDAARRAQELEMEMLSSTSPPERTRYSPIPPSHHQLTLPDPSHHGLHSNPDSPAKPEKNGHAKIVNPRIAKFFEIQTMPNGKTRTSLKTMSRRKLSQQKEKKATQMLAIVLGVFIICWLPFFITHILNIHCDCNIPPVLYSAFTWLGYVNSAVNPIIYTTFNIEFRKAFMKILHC
T3 sequence (P19020 whole entry): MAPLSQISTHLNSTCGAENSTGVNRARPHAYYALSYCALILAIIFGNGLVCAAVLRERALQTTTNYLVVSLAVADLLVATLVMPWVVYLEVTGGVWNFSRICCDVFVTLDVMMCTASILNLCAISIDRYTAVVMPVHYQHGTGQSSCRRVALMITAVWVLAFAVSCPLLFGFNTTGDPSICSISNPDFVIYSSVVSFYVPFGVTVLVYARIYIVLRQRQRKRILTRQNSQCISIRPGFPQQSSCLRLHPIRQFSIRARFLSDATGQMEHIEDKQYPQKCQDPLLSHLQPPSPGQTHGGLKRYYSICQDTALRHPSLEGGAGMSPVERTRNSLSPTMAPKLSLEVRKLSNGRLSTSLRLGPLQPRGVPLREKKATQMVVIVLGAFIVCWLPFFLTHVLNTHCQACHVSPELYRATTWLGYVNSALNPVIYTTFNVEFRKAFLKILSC
T1 sequence (P31389 whole entry): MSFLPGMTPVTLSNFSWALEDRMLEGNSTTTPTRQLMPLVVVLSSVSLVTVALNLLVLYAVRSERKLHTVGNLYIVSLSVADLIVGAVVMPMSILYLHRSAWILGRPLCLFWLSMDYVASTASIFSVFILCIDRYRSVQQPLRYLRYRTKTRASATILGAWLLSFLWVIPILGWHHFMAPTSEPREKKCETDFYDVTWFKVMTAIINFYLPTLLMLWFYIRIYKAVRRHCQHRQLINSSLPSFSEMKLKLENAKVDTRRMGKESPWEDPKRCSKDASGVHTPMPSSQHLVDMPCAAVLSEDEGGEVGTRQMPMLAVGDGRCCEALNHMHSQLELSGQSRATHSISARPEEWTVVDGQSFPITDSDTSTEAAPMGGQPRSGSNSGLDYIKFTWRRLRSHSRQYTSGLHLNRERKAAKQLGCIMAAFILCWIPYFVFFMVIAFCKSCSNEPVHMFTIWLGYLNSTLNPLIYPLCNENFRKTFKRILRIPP

As to `COc1ccc(-c2nnc(SCCCN3CCC(c4noc5cc(F)ccc45)CC3)o2)cc1` [Compound 14, 2-(3-(4-(6-fluorobenzo[d]isoxazol-3-yl)piperidin-1-yl)propylthio)-5-(4-methoxyphenyl)-1,3,4-oxadiazole], the inhibitory constant (Ki) (as a rule, the dissociation constant of the complex between target and ligand, obtained from inhibition or displacement) came to 13.2 ± 3.4 nM at histamine H1 receptor; 6.8 ± 0.7 nM in data set [1]; 219 ± 35.2 nM at dopamine D3 receptor; 0.22 ± 0.02 nM in data set [2]; 14.8 ± 1.8 nM on dopamine D2 receptor.

Consider `Fc1ccc2c(C3CCN(CCCSc4nnc(-c5ccc(Cl)cc5)o4)CC3)noc2c1` [Compound 16, 2-(3-(4-(6-fluorobenzo[d]isoxazol-3-yl)piperidin-1-yl)propylthio)-5-(4-chlorophenyl)-1,3,4-oxadiazole], for which the Ki is 18.9 ± 2.1 nM on histamine H1 receptor ([3H]pyrilamine, guinea pig cerebellum, mean of three experiments, >10000 marked b: Ki not calculated, inhibition at 10 µM too low); 10.5 ± 1.2 nM in data set [1] ([3H]8-OH-DPAT, rat brain cortex, mean of three experiments, >10000 marked b: Ki not calculated, inhibition at 10 µM too low); 15.5 ± 1.9 nM on dopamine D3 receptor; 502 ± 56.2 nM in data set [3]; 6.6 ± 0.8 nM in data set [2] ([3H]ketanserin, rat brain cortex, mean of three experiments, >10000 marked b: Ki not calculated, inhibition at 10 µM too low); 18.3 ± 1.6 nM at dopamine D2 receptor ([3H]spiperone, rat striatum, mean of three experiments, >10000 marked b: Ki not calculated, inhibition at 10 µM too low).

`Fc1ccc2c(C3CCN(CCCSc4nnc(-c5ccc(C(F)(F)F)cc5)o4)CC3)noc2c1` [Compound 18, 2-(3-(4-(6-fluorobenzo[d]isoxazol-3-yl)piperidin-1-yl)propylthio)-5-(4-(trifluoromethyl)phenyl)-1,3,4-oxadiazole]: the melting point (usually the temperature, or range, at which the solid turns liquid) was 122 to 124 °C. Also, the Ki in [1] worked out at 51 ± 4.9 nM. Also, the Ki in data set [2] came out at 24.7 ± 2.8 nM. Moreover, the inhibitory constant (Ki) on dopamine D2 receptor is 94.5 ± 8.9 nM.

`c1ccc2c(N3CCN(CCCSc4nnc(-c5ccncc5)o4)CC3)nsc2c1` [Compound 25, 2-(3-(4-(benzo[d]isothiazol-3-yl)piperazin-1-yl)propylthio)-5-(pyridin-4-yl)-1,3,4-oxadiazole] displayed a melting point of 93 to 94 °C. Also, the Ki in data set [1] was > 10000 nM. For the same compound, in data set [2], the inhibition constant Ki turned out to be 390 ± 36.5 nM. The Ki at dopamine D2 receptor was > 10000 nM.

In the case of `CN1CCN(C2=Nc3cc(Cl)ccc3Nc3ccccc32)CC1` [clozapine], the values for the ED50 (in data set [4]; in “in vivo”; in data set [5] (setting [6])) were 5.06 mg/kg, 92.7 mg/kg and 7.99 mg/kg, respectively.

Regarding `O=C(CCCN1CCC(O)(c2ccc(Cl)cc2)CC1)c1ccc(F)cc1` [haloperidol], the 50% effective dose (ED50) (commonly the dose at which the effect has come halfway, by size or by number of responders) came out at 0.19 mg/kg in data set [4], 0.22 mg/kg in “in vivo” and 0.09 mg/kg in data set [5] (setting [6]).

`Cc1nc2n(c(=O)c1CCN1CCC(c3noc4cc(F)ccc34)CC1)CCCC2` [risperidone]: the 50% effective dose (ED50) in data set [5] came out at 0.02 mg/kg.

The values above are taken from publication PMC3340383, “Synthesis and Evaluation of a Series of 2-Substituted-5-Thiopropylpiperazine (Piperidine)-1,3,4-Oxadiazoles Derivatives as Atypical Antipsychotics” (PLoS ONE, 2012).
